What all share (assay type): binding
Assay [1] has as its system Antibody A specific for cortisol (clone 16DC/17.7, IgG1κ). The assay is described as follows: LOCI competitive cortisol immunoassay, cross-reactivity screening with Biotinylated Antibody A Reagent. To be noted: 100% A Biotinylated Antibody; steroid-stripped serum with cortisol (5 ng/dL). Here is the method: (§1) The antibodies were subjected to analytical size exclusion chromatography prior to any manipulations.
(§2) NHS-PEO4-Biotin was dissolved fresh at 10 mg/mL in Antibody Dialysis Buffer. […] The mixture was rocked at 25° C. for exactly 3 hours. A 200 mM solution of glycine was prepared by dissolving 750 mg glycine in Antibody Dialysis Buffer to a total volume of 50 mL. At the end of the 3-hour biotinylation reaction, 1.52 mL of the 200 mM glycine solution was added to the reaction mixture. The quenched reaction mixture was rocked an additional 60 minutes at 25° C.
(§3) The biotinylated antibody was then purified using preparatory HPLC using Antibody Dialysis Buffer as the mobile phase. […] This reagent was designated as the Biotinylated Antibody Reagent.
(§4) The assay used for screening purposes was conducted on the DIMENSION® VISTA® instrument (system) (Siemens Healthcare Diagnostics Inc., Newark Del.). Initially, 20 μL Biotinylated Antibody Reagent with 15 μL system water was added to the vessel. After 22 seconds, 15 μL sample with 15 μL system water were added to the vessel. After almost 4 minutes, 20 μL Chemibead Reagent with 15 μL system water were added to the vessel. Approximately 7 minutes later, 20 μL Sensibead Reagent with 135 μL system water was added to the vessel. The LOCI® read was taken after approximately 5 minutes. The assay from the first reagent addition to the final read took approximately 16 minutes. The contents of the vessel when the final read is taken were as follows: 2 ng/mL Biotinylated Antibody Reagent, 4 μg/mL Chemibead Reagent, 56 μg/mL Sensibead Reagent, and […] sample. The assay is a competitive format, which means that the greater the concentration of analyte in the sample, the smaller is the signal generation. This is because a detectable complex is formed by the Biotinylated Antibody Reagent, Chemibead Reagent, and Sensibead Reagent in the absence of analyte. The presence of analyte decreases the proportion of Biotinylated Antibody Reagent that is free to form detectable complexes.
(§5) Initial testing used Biotinylated Antibody A Reagent with the other reagents and the methodology described above to analyze the steroid-stripped serum with cortisol. The panel of 34 cross-reactants were individually added to the steroid-stripped serum with a defined concentration of cortisol (5 ng/dL) and assayed. Cross-reactivity data were calculated as follows:
(§6) [formula] The same testing was performed using Biotinylated Antibody L Reagent. The compilation of the percent cross-reactivities for the 34 compounds is referred to as the cross-reactivity profile. The apparent cortisol concentration is the cortisol value obtained when testing a sample containing cortisol and the interfering substance by the above test method that also detects the interfering substance to some degree.

Assay [2] has as its system Antibody L specific for cortisol (clone XM210, IgG2a). Briefly: LOCI competitive cortisol immunoassay, cross-reactivity screening with Biotinylated Antibody L Reagent. The settings on record: 100% L Biotinylated Antibody; steroid-stripped serum with cortisol (5 ng/dL). Here is the method: as §1, §2, §3, §4, §5, §6
Assay [3] relates to mixture of Biotinylated Antibody A Reagent and Biotinylated Antibody L Reagent. The assay is described as follows: LOCI competitive cortisol immunoassay, cross-reactivity with mixtures of Biotinylated Antibody A and L Reagents. The settings on record: steroid-stripped serum with cortisol. Here is the method:
as §4, §5, §6
A further study was performed by mixing Biotinylated Antibody A Reagent with Biotinylated Antibody L Reagent in a 50:50 mixture; 80% Biotinylated Antibody A Reagent: 20% Biotinylated Antibody L Reagent; 75% Biotinylated Antibody A Reagent: 25% Biotinylated Antibody L Reagent; and 70% Biotinylated Antibody A Reagent: 30% Biotinylated Antibody L Reagent. […] These reagents were used to test cross-reactivity in stripped serum with cortisol.

Where [4] appears, read: 70% A 30% L Biotinylated Antibody.
The mark [5] stands for this setting: 75% A 25% L Biotinylated Antibody.
Where [6] appears, read: 80% A 20% L Biotinylated Antibody.

Take `C[C@]12CCC(=O)C=C1[C@H](O)C[C@@H]1[C@@H]2[C@@H](O)C[C@@]2(C)[C@H]1CC[C@]2(O)C(=O)CO` [6β-hydroxycortisol]: the percent cross reactivity in assay [1] stood at 2.7%; in assay [2], 100.0%; in assay [3] (setting [4]), 6.9%; in assay [3] (setting [5]) it was 6.2%; in assay [3] (setting [6]), 5.5%.
Consider `C[C@]12CC(=O)[C@H]3[C@@H](CCC4=CC(=O)CC[C@@]43C)[C@@H]1CC[C@@H]2C(=O)CO` [dehydrocorticosterone], for which the percent cross reactivity is 0.6% in assay [1]; 0.8% in assay [2]; 0.7% in assay [3] (setting [4]); 0.7% in assay [3] (setting [5]); 0.7% in assay [3] (setting [6]).

Source of the values: patent publication US10088490B2, “Assay for analytes using multiple receptors” (Siemens Healthcare Diagnostics Inc., priority 2010, dated 2018).
